Calls of active or inactive are those of the source. No cut-off for these calls is given here.
Columns and labels:
MRC5 [1] = experiment: Induction of HO-1 expression in human MRC5 cells […] after 24 hrs by immunoblotting analysis relative to control; type: functional
MRC5 [2] = experiment: Induction of ATPIF-1 expression in human MRC5 cells […] after 24 hrs by immunoblotting analysis relative to control; type: functional
HCT-116 [3] = experiment: Cytotoxicity against human HCT116 cells at 30 uM after 24 hrs by MTT assay in presence of HO-1 inhibitor ZnPP; type: functional, cell-based
HCT-116 [4] = experiment: Induction of apoptosis in human HCT116 cells assessed as PARP cleavage at 20 uM after 48 hrs by Western blotting method; type: functional, cell-based
MRC5 [5] = experiment: Induction of apoptosis in human MRC5 cells assessed as downregulation of Bcl-XL protein expression in presence of H2O2 by Western blotting method; type: functional, cell-based
HCT-116 [6] = experiment: Induction of cellular energetics impairment in human HCT116 cells assessed as cellular ATP level by Cell Titre-Glo assay relative to vehicle-treated control; type: functional
HCT-116 [7] = experiment: Induction of mitochondrial morphology changes in human HCT116 cells assessed as swelling and damaged mitochondria by microscopic analysis; type: functional, cell-based
HT-29 [8] = experiment: Cytotoxicity against human HT-29 cells at 30 uM after 24 hrs by MTT assay in presence of HO-1 inducer hemin; type: functional, cell-based
MRC5 [9] = experiment: Induction of apoptosis in human MRC5 cells assessed as downregulation of Bcl2 protein expression in presence of H2O2 by Western blotting method; type: functional, cell-based
HCT-116 [10] = experiment: Cytotoxicity against human HCT116 cells after 24 to 48 hrs by MTT assay; type: functional, cell-based
HCT-116 [11] = experiment: Cytotoxicity against human HCT116 cells at 10 to 50 uM by MTT assay; type: functional, cell-based; settings: TDE = time-dependent effect
HCT-116 [12] = experiment: Cytotoxicity against human HCT116 cells at 30 uM after 24 hrs by MTT assay in presence of HO-1 inhibitor siRNA; type: functional, cell-based
HT-29 [13] = experiment: Induction of cellular energetics impairment in human HT-29 cells assessed as cellular ATP level by Cell Titre-Glo assay relative to vehicle-treated control; type: functional
HT-29 [14] = experiment: Induction of mitochondrial morphology changes in human HT-29 cells assessed as mitochondria with electron dense phenotype and well preserved cristae by microscopic analysis; type: functional, cell-based
HCT-116 [15] = experiment: Cytotoxicity against human HCT116 cells at 20 uM after 24 to 48 hrs by MTT assay; type: functional, cell-based
MRC5 [16] = experiment: Cytotoxicity against human MRC5 cells by MTT assay in presence of H2O2; type: functional, cell-based
HT-29 [17] = experiment: Cytotoxicity against human HT-29 cells at 20 uM after 24 to 48 hrs by MTT assay; type: functional, cell-based
HT-29 [18] = experiment: Induction of ATPIF-1 expression in human HT-29 cells at 20 uM after 48 hrs relative to vehicle-treated control; type: functional, cell-based
HCT-116 [19] = experiment: Induction of ATPIF-1 expression in human HCT116 cells at 20 uM after 48 hrs relative to vehicle-treated control; type: functional, cell-based
HT-29 [20] = experiment: Induction of mitochondrial morphology changes in human HT-29 cells assessed as lipid bodies near mitochondria by microscopic analysis; type: functional, cell-based
HT-29 [21] = experiment: Cytotoxicity against human HT-29 cells at 10 to 50 uM after 24 to 48 hrs by MTT assay; type: functional, cell-based
MRC5 [22] = experiment: Cytotoxicity against human MRC5 cells at 30 uM by MTT assay in presence of H2O2; type: functional, cell-based
HCT-116 [23] = experiment: Cytotoxicity against human HCT116 cells at 10 to 50 uM after 24 to 48 hrs by MTT assay; type: functional, cell-based

Structure (SMILES) | Ratio (MRC5 [1]) | Ratio (MRC5 [2]) | other results
C=C[C@@H](c1ccc(OCc2ccccc2)c(OC)c1)c1c(OCc2ccccc2)cc(OCc2ccccc2)c2c(=O)cc(-c3ccccc3)oc12 | 0.6 | 2 | 
C=C[C@@H](c1ccc(OC)c(OC)c1)c1c(OC)cc(O)c2c(=O)cc(-c3ccccc3)oc12 | 2.2 | 2 | 
C=C[C@@H](c1ccc(O)c(OC)c1)c1c(OC)cc(O)c2c(=O)cc(-c3ccccc3)oc12 | 3.4 | 1.8 | Activity (HCT-116 [3]): inactive; Activity (HCT-116 [4]): Active; Activity (MRC5 [5]): Active; Activity (HCT-116 [6]): 37.3%; Activity (HCT-116 [7]): Active; Activity (HT-29 [8]): Active; Activity (MRC5 [9]): Active; Activity (HCT-116 [10]): Dose-dependent effect; Activity (HCT-116 [11]): tde; Activity (HCT-116 [12]): inactive; Activity (HT-29 [13]): 37.8%; Activity (HT-29 [14]): Active; Activity (HCT-116 [15]): Active; Activity (MRC5 [16]): Active; Activity (HT-29 [17]): Active; Activity (HT-29 [18]): Active; Activity (HCT-116 [19]): Active; Activity (HT-29 [20]): Active
C=C[C@@H](c1ccc(OCc2ccccc2)c(OC)c1)c1c(O)cc(OCc2ccccc2)c2c(=O)cc(-c3ccccc3)oc12 | 1.1 | 1.5 | 
C=C[C@@H](c1ccc(O)c(OC)c1)c1c(O)cc(OC)c2c(=O)cc(-c3ccccc3)oc12 | 1.8 | 1.6 | 
COc1cc(/C=C/COc2cc(OCc3ccccc3)c3c(=O)cc(-c4ccccc4)oc3c2)ccc1OCc1ccccc1 | 3 | 1 | Activity (HCT-116 [6]): 79.3%; Activity (HT-29 [21]): inactive; Activity (MRC5 [22]): inactive; Activity (HT-29 [13]): 99.2%; Activity (MRC5 [16]): inactive; Activity (HCT-116 [23]): inactive
C=C[C@@H](c1ccccc1)c1c(O)cc(O)c2c(=O)cc(-c3ccccc3)oc12 | 2.4 | 1.5 | 
C=C[C@@H](c1ccc(OC)cc1)c1c(O)cc(O)c2c(=O)cc(-c3ccccc3)oc12 | 1.1 | 1.8 | Activity (MRC5 [16]): inactive
C=C[C@@H](c1ccc(OC)c(OC)c1)c1c(O)cc(OC)c2c(=O)cc(-c3ccccc3)oc12 | 1.1 | 1.9 | 
C=C[C@@H](c1ccc(OC)c(OC)c1)c1c(OC)cc(OC)c2c(=O)cc(-c3ccccc3)oc12 | 1.5 | 1.6 | 
C=C[C@@H](c1ccc(O)c(OC)c1)c1c(O)cc(O)c2c(=O)cc(-c3ccccc3)oc12 | 1.7 | 2.3 | Activity (MRC5 [22]): Active
C=C[C@@H](c1ccc(O)c(OC)c1)c1c(O)cc(O)c2c(=O)cc(-c3ccc(OC)cc3)oc12 | 2.3 | 1.4 | 
C=C[C@@H](c1ccc(OC)c(OC)c1)c1c(O)cc(O)c2c(=O)cc(-c3ccccc3)oc12 | 1.6 | 1.3 | 
C=C[C@@H](c1ccc(O)c(OC)c1)c1c(OC)cc(OC)c2c(=O)cc(-c3ccccc3)oc12 | 2.2 | 2.3 | 
